Laboratory results published in patent US20240264150A1, “METHODS FOR ASSIGNING A PHENOTYPIC SIGNATURE FOR DIAGNOSTIC AND THERAPEUTIC APPLICATIONS” (DEUTSCHES ZENTRUM FÜR NEURODEGENERATIVE ERKRANKUNGEN E.V. …, priority 2020, published 2024).

What was measured:
Format in all cases: cell-based, human
[1] = system: inflammasome activation by LPS+ATP; experiment: Benchmark experiment, present assay platform (HTRF cytokine release plus image-based multi-parametric readouts), LPS priming and LPS+ATP activation; details: for TNFa-positive cells percentage: LPS and LPS_Activator conditions, vs DMSO; for inflammasome activation / percentage of IL1beta-positive cells / IL1beta release: LPS+ATP (LPS_Activator); for IL1beta release: vs DMSO control
Excerpt: (§1) FIG. 24: Added-Value-1. Higher precision and accuracy of the present technology compared to Luminex cytokine assays. We tested the IL1beta- and TNFalpha release performance on the present assay platform (integrated as HTRF assays from cisbio/PerkinElmer into the inventive workflow) (B) in comparison to the Luminex cytokine assay technology (A). […] (2) Due to its higher precision and accuracy, the inventive technology allowed to disclose distinct compound (Cmpd) effects on donor-specific responses which was not achieved by the Luminex technology despite its higher nominal assay ranges as indicated by the upper and lower LoD's (tables on the left in A, B). (3) Despite higher nominal assay ranges of Luminex cytokine tests compared to present technology cytokine release LoD's (dotted lines), donor-specific response ranges were solely resolved by the inventive technology and could not be identified by the Luminex assay. (4) Despite higher nominal assay ranges of Luminex cytokine tests compared to present technology cytokine release LoD's, the inventive technology covered a larger assay window as indicated by the ovals on the TNFa-release box plot y-axes in (A) and (B).
(§2) To benchmark the inventive technology in the context of established state-of-the-art cytokine assays in the field of innate immune response analyses, a product benchmarking experiment was conducted. Towards this end, a 34-plex, off-the-shelf Luminex cytokine assay kit was tested in comparison to the present assay platform which in this embodiment integrates cytokine release data with image-based readout analyses leading to increased knowledge and added scientific value.
(§3) In the benchmarking experiment, innate immune reactions were assessed by classical cytokine release assays, i.e. the Luminex assay technology, and compared to the present platform which allows an in-depth analysis of immune responses by the combination and integration of cytokine release data and image-based multi-parametric readouts. Since the present assay platform represents a functional assay, the following conditions were analyzed, untreated, LPS-priming and priming-activation by LPS+ATP. Furthermore, the effects of selected reference compounds on the innate immune responses were tested, i.e. CRID3/MCC950 (NLRP3 inflammasome inhibitor), P22077 (ubiquitin protease inhibitor), 4SC202/Domatinostat (class 1 HDAC inhibitor), MI-2 (MALT1 inhibitor, NLRP3 inhibitor), A438079 (P2X7 receptor antagonist), VX-765 (CASP1 inhibitor) and Z-VAD-OH-FMK (pan-CASP inhibitor). The selection of the reference compounds was based on compound-specific effects on captured phenotypes obtained by the present technology (Table 3). Captured phenotypes obtained by multi-parametric and image-based readout constitute an added value provided by the present technology.

[2] = system: inflammasome activation by LPS+ATP; experiment: Benchmark experiment, 34-plex Luminex cytokine assay; details: for IL1b release (Luminex): LPS+ATP
Excerpt: as §1, §2, §3

PBMC = experiment: De-risking of cyclooxygenase (COX)-modulators (pain-killers) in the PBMC test system: image-based and supernatant cytokine readouts; details: for alteration of the collective phenotypic signature: 54 COX-modulators, three independent experiments, normalized to untreated control
Description: 54 pain-killers were tested in three independent experiments. […] The results were normalized to the untreated control group. Image-based assay read outs: a) “Active”, ratio of cells presenting mounted inflammasome, b) “TNFaPosRate”, ratio of cells showing intracellular TNFalpha expression, c) “TNFa specs/cell”, number of TNFalpha spots within TNFalpha positive cells, d) “Cells”, total number of cells. Homogenous assay read outs: e) “TNFa see”, TNFalpha concentration in the supernatant in ng/ml, f) “IL1b”, IL1beta concentration in the supernatant in ng/ml.
54 compounds were tested, which are known as cyclooxygenase (COX)-Modulators. Most of the compounds were already on market or in drug development process. A unique collective phenotypic signature of this drug class was identified. There was no alteration of assay parameters, meaning that common Cox-modulators should have no effect on the innate immune response in the test system provided by the present invention. […] Bufexamac was withdrawn from market 2010 due to allergic reaction and was further proposed in 2017 as co-treatment agent (TNFa binder) for modulators of TNFa synthesis. […] Xanthohumol, a chalcone isolated from Humulus lupus, is currently in clinical trial phase 1. Currently, there is no information about induced adverse effects.
The adverse effects of all three compounds were not identified during the safety/toxicity assessment in preclinical lead optimization or in clinical trials. Current safety testing during preclinical drug development was not able to detect the adverse modulation of innate immune response.

| Compound | inflammasome activation ([1]; image-based) | percentage of IL1beta-positive cells ([1]; image-based) | IL1beta release [1] | IL1b release (Luminex) [2] | alteration of the collective phenotypic signature (PBMC) | also measured |
| --- | --- | --- | --- | --- | --- | --- |
| Clc1cccc(-c2nnnn2Cc2cccnc2)c1Cl [A-438079] | complete block | marked increase | block | block |  | TNFa-positive cells percentage [1]: no impact |
| Z-VAD-OH-FMK | did not show any effect | low percentage | block | block |  |  |
| CC(C(=O)O)c1ccc(C(=O)c2cccs2)cc1 (centres unmarked) [Subrofen] |  |  |  |  | show alteration of the collective phenotypic signature | cytokine release (II. 1b) (PBMC; supernatant): strong decrease |
| COc1cc(O)c(CC=C(C)C)c(O)c1C(=O)/C=C/c1ccc(O)cc1 [Xanthohumol] |  |  |  |  | show alteration of the collective phenotypic signature |  |
| COCCOc1nc(-c2ccc(Cl)c(Cl)c2)n(-c2ccc(NC(=O)CCl)cc2)n1 [MI-2] | complete block | marked increase | complete block | block |  | TNFa-positive cells percentage [1]: not affected; percentage of TNFa-multispot-positive cells ([1]; image-based): robust increase; TNFa release ([1]; present assay): partial block; TNFa release (Luminex) [2]: partial block of TNFa release with limited resolution |
| CC(C)(O)c1coc(S(=O)(=O)NC(=O)Nc2c3c(cc4c2CCC4)CCC3)c1 [CRID3, CRID3/MCC950] | complete block | marked increase | complete block | block |  |  |
| CCCCOc1ccc(CC(=O)NO)cc1 [Bufexamac] |  |  |  |  | show alteration of the collective phenotypic signature | TNFa binder effect (PBMC): effect was proofed |
